Test results from US7153875B2, “Heterocyclic derivatives for the treatment of cancer and other proliferative diseases” (Incyte San Diego, priority 2001, dated 2006).

| SMILES | melting point |
| --- | --- |
| COc1ccccc1-c1cc(-c2ccc(/C=C3\SC(=O)NC3=O)cc2)cc2c1OCO2 [Compound 4, 4-[3-(2-Methoxyphenyl)-4,5-methylenedioxyphenyl]-benzylidene-2,4-thiazolidinedione] | 227 to 228 °C (dec.) |
| COc1ccc(-c2ccc(/C=C3\SC(=S)NC3=O)cc2)cc1C12CC3CC(CC(C3)C1)C2 [Compound 6, 4-[3-(1-Adamantyl)-4-methoxyphenyl]-benzylidene-2-thioxo-4-thiazolidinedione] | 313 to 317 °C |
| O=C1NC(=O)/C(=C/c2ccc(-c3ccc(O)c(C45CC6CC(CC(C6)C4)C5)c3)cc2)S1 [Compound 7, 4-[3-(1-Adamantyl)-4-hydroxyphenyl]benzylidene-2,4-thiazolidinedione] | 307 to 308.5 °C |
| COc1ccc(-c2ccc3cc(CC4SC(=O)NC4=O)ccc3c2)cc1C12CC3CC(CC(C3)C1)C2 (stereo not shown) [Compound 9, 6-[3-(1-Adamantyl)-4-methoxyphenyl]-naphthalen-2-yl-methyl-2,4-thiazolidinedione] | 251 to 253 °C |
| COCOc1ccc(-c2ccc(/C=C3\SC(=O)NC3=O)cc2)cc1C12CC3CC(CC(C3)C1)C2 [Compound 10, 4-[3-(1-Adamantyl)-4-methoxymethoxyphenyl]-benzylidene-2,4-thiazolidinedione] | 253 to 254.5 °C |
| O=C1NC(=O)C(Cc2ccc3cc(-c4ccc(O)c(C56CC7CC(CC(C7)C5)C6)c4)ccc3c2)S1 (stereo not shown) [Compound 16, 6-[3-(1-Adamantyl)-4-hydroxyphenyl]-naphthalen-2-yl-methyl-2,4-thiazolidinedione] | 270.5 to 272 °C |
| COc1ccc(-c2ccc3cc(C4SC(=O)NC4=O)ccc3c2)cc1C12CC3CC(CC(C3)C1)C2 (stereo not shown) [Compound 23, 5-[6-(3-[1-Adamantyl]-4-methoxyphenyl)-naphthalen-2-yl]-2,4-thiazolidinedione] | 205 to 207 °C |
| O=C1NC(=O)C(c2ccc3cc(-c4ccc(O)c(C56CC7CC(CC(C7)C5)C6)c4)ccc3c2)S1 (stereo not shown) [Compound 24, 5-[6-(3-[1-Adamantyl]-4-hydroxyphenyl)-naphthalen-2-yl]-2,4-thiazolidinedione] | 312 to 314.5 °C |
| O=C1NC(=O)/C(=C/c2ccc(-c3ccc(O)c(C45CC6CC(CC(C6)C4)C5)c3)nc2)S1 [Compound 33] | 315 to 318 °C |
| O=C1NC(=O)/C(=C/c2ccc(-c3cc(F)c(O)c(C45CC6CC(CC(C6)C4)C5)c3)cc2)S1 [Compound 34, 4-[3-(1-Adamantyl)-4-hydroxy-5-fluoro-phenyl]benzylidene-2,4-thiazolidinedione] | 305 to 308 °C |
| O=C1NC(=O)/C(=C/c2ccc(-c3ccc(O)c(C45CC6CC(CC(C6)C4)C5)c3)c(O)c2)S1 [Compound 35, 4-[3-(1-Adamantyl)-4-hydroxy-phenyl]-5-hydroxybenzylidene-2,4-thiazolidinedione] | 224 to 226 °C |
| Cc1cc(O)c(C23CC4CC(CC(C4)C2)C3)cc1-c1ccc(/C=C2\SC(=O)NC2=O)cc1 [Compound 36, 4-[3-(1-Adamantyl)-4-hydroxy-6-methyl-phenyl]benzylidene-2,4-thiazolidinedione] | 275 to 280 °C |
| O=C1NC(=O)/C(=C/c2ccc(-c3cc(F)c(O)c(C45CC6CC(CC(C6)C4)C5)c3)nc2)S1 [Compound 37] | 307 to 310 °C |
| O=C1NC(=O)/C(=C/c2ccc(-c3cc(Cl)c(O)c(C45CC6CC(CC(C6)C4)C5)c3)cc2)S1 [Compound 38, 4-[3-(1-Adamantyl)-4-hydroxy-5-chloro-phenyl]benzylidene-2,4-thiazolidinedione] | 323 to 328 °C |
| CC(C)(C)c1cc(-c2ccc(/C=C3\SC(=O)NC3=O)cc2)ccc1O [Compound 39, 4-[3-(t-Butyl)-4-hydroxy-phenyl]benzylidene-2,4-thiazolidinedione] | 256 to 257 °C |
| CC(C)(C)c1cc(-c2ccc(/C=C3\SC(=O)NC3=O)cn2)ccc1O [Compound 40] | 303 to 304 °C |

| SMILES | melting point |
| --- | --- |
| O=C1NC(=O)/C(=C/c2ccc(-c3ccc(O)c(C45CC6CC(CC(C6)C4)C5)c3)c(F)c2)S1 [Compound 41, 4-[3-(1-Adamantyl)-4-hydroxy-phenyl]-5-fluorobenzylidene-2,4-thiazolidinedione] | 270 to 274 °C |
| O=C1NC(=O)/C(=C/c2ccc(-c3ccc(O)c(C45CC6CC(CC(C6)C4)C5)c3)cc2F)S1 [Compound 42, 4-[3-(1-Adamantyl)-4-hydroxy-phenyl]-6-fluorobenzylidene-2,4-thiazolidinedione] | 307 to 309 °C |
| O=C1NC(=O)/C(=C/c2ccc(-c3cc(Cl)c(O)c(C45CC6CC(CC(C6)C4)C5)c3)nc2)S1 [Compound 43] | 339 to 342 °C |
| COc1cc(-c2ccc(/C=C3\SC(=O)NC3=O)cn2)cc(C23CC4CC(CC(C4)C2)C3)c1O [Compound 44] | 211 to 216 °C |
| O=C1NC(=O)/C(=C/c2ccc(-c3ccc(O)c(C45CC6CC(CC(C6)C4)C5)c3)c(OC(F)(F)F)c2)S1 [Compound 46, 4-[3-(1-Adamantyl)-4-hydroxy-phenyl]-5-triflouromethoxybenzylidene-2,4-thiazolidinedione] | 238 to 240 °C |
| CC1(c2cc(-c3ccc(/C=C4\SC(=O)NC4=O)cn3)ccc2O)CCCCC1 [Compound 47] | 293 to 295 °C |
| O=C1NC(=O)/C(=C/c2ccc(-c3ccc(O)c(C45CC6CC(CC(C6)C4)C5)c3)c(Cl)c2)S1 [Compound 48, 4-[3-(1-Adamantyl)-4-hydroxy-phenyl]-5-chlorobenzylidene-2,4thiazolidinedione] | > 280 °C (dec.) |
| Cc1cc(/C=C2\SC(=O)NC2=O)ccc1-c1ccc(O)c(C23CC4CC(CC(C4)C2)C3)c1 [Compound 48, 4-[3-(1-Adamantyl)-4-hydroxy-phenyl]-5-methylbenzylidene-2,4-thiazolidinedione] | > 305 °C (dec.) |
| CCOc1cc(/C=C2\SC(=O)NC2=O)ccc1-c1ccc(O)c(C23CC4CC(CC(C4)C2)C3)c1 [Compound 49, 4-[3-(1-Adamantyl)-4-hydroxy-phenyl]-5-ethoxybenzylidene-2,4-thiazolidinedione] | 298 to 302 °C |
| O=C1NC(=O)/C(=C/c2ccc(-c3ccc(O)c(C45CC6CC(CC(C6)C4)C5)c3)c([N+](=O)[O-])c2)S1 [Compound 50, 4-[3-(1-Adamantyl)-4-hydroxy-phenyl]-5-nitrobenzylidene-2,4-thiazolidinedione] | 262 to 264 °C |
| Nc1cc(/C=C2\SC(=O)NC2=O)ccc1-c1ccc(O)c(C23CC4CC(CC(C4)C2)C3)c1 [Compound 51, 4-[3-(1-Adamantyl)-4-hydroxy-phenyl]-5-aminobenzylidene-2,4-thiazolidinedione] | 167 to 169 °C |
| CC(c1ccc(-c2ccc(O)c(C34CC5CC(CC(C5)C3)C4)c2)nc1)C1SC(=O)NC1=O (stereo not shown) [Compound 52, {1-[6-(3-Adamantan-1-yl-4-hydroxy-phenyl)-pyridin-3-yl]-ethyl}-thiazolidine-2,4-dione] | 169 to 171 °C |
| O=C1NC(=O)/C(=C/c2ccc(-c3cc([N+](=O)[O-])c(O)c(C45CC6CC(CC(C6)C4)C5)c3)nc2)S1 [Compound 53] | 291 to 293 °C |
| C/C(=C1/SC(=O)NC1=O)c1ccc(-c2ccc(O)c(C34CC5CC(CC(C5)C3)C4)c2)nc1 [Compound 54, (Z)-{1-[6-(3-Adamantan-1-yl-4-hydroxy-phenyl)-pyridin-3-yl]-ethylidene}-thiazolidine-2,4-dione] | 181 to 182 °C |
| C/C(=C1\SC(=O)NC1=O)c1ccc(-c2ccc(O)c(C34CC5CC(CC(C5)C3)C4)c2)nc1 [Compound 55, (E)-{1-[6-(3-Adamantan-1-yl-4-hydroxy-phenyl)-pyridin-3-yl]-ethylidene}-thiazolidine-2,4-dione] | 224 to 225 °C |
